# Test results taken from US20050100595A1, “Methods for micronization of hydrophobic drugs” (Brown University Research Foundation, priority 2001, published 2005).
# Experiments:
# [1] = Coulter particle size analysis (laser-light diffractometry, volume statistics); type: physicochemical
# Procedure: A 250 μg/mL suspension of microspheres in 1% pluronic F127 [poly(ethylene oxide)-b-poly(propylene oxide)-b-poly(ethylene oxide)]/1% hydroxypropylmethylcellulose (HPMC) was introduced into the small volume fluid module. Only the Coulter output based on volume measurements was used for analysis.
# [2] = Scanning electron microscopy of dicumarol formulations; type: physicochemical
# Procedure: Scanning Electron Microscopy: All samples were sputter-coated with an Au—Pd target for 3.5 minutes and spread out on a carbon-backed adhesive disc on top of the SEM stub. The Hitachi 2700 was used to visualize the samples at an accelerating voltage of 8 kV.
# [3] = Dicumarol loading by NaOH extraction; type: physicochemical; settings: dicumarol content by NaOH extraction
# Procedure: 100 mg p(FA:SA) 17:83 was dissolved in this solution by sonicating for an additional 30 s. The resultant solution was dispersed into 1.0 L petroleum ether and the precipitate was collected using a 100 nm filter composed of mixed-cellulose esters. The microsphere formulation was then frozen and lyophilized for 24 hours. The dicumarol loading was determined in this formulation by a simple extraction protocol. Microspheres were incubated overnight in 2.5 N NaOH at 37° C. Upon dissolution, an aliquot of approximately 15 μg based on theoretical loading was added to 2.5 N NaOH to make a total volume of 800 μL. This mixture was agitated for 2 minutes and centrifuged for 2 minutes at 11,269 g.
# The dicumarol loading was determined in all formulations by a simple extraction protocol. Microspheres were incubated overnight in 2.5 N NaOH at 37° C. Upon dissolution, an aliquot of approximately 15 μg based on theoretical loading was added to 2.5 N NaOH to make a total volume of 800 μL. This mixture was agitated for 2 minutes and centrifuged for 2 minutes at 11,269 g.
# [4] = in vivo; settings: rat, 25 mg/kg
# Description: Rats were anesthetized using isoflurane gas.
# Non-compartmental pharmacokinetics were assumed.
smiles,measurement,setting,value
"O=c1oc2ccccc2c(O)c1Cc1c(O)c2ccccc2oc1=O [Stock, Dicumarol]",mean particle diameter,[1]; based on volume statistics,18.5 μm
same,Coulter Particle Analysis 25% <,"[1]; volume calculations, 25% of population less than this size",12.98 μm
same,Coulter Particle Analysis 50% <,"[1]; volume calculations, 50% of population less than this size",18.95 μm
same,Coulter Particle Analysis 75% <,"[1]; volume calculations, 75% of population less than this size",24.82 μm
same,particle size seen in SEM micrographs,[2]; FIG. 1,10-20 microns
same,particle size seen in SEM micrographs,[2]; FIG. 7A,approximately 25 μm
same,Loading (drug loading),[3],100%
same,bioavailability,"[4]; male, Sprague-Dawley",90.1 ± 7.3%
same,Cmax,"[4]; male, Sprague-Dawley, po",73 ± 6 µg/mL
same,Tmax,"[4]; male, Sprague-Dawley, po",14 ± 2 h
same,plasma concentration reached (peak of plasma curve),"[4]; male, Sprague-Dawley, po",64 µg/mL
same,time after which the peak of the plasma curve was reached,"[4]; male, Sprague-Dawley, po",3 h
same,AUC,[4]; po,2666 ± 206 µg·h/mL
